From PubChem BioAssay AID330 (DTP/NCI, 2004)
“And” between values parts separate entries of the source, which are not always exact repeats. Identical values can stand only once. Toxic doses and inconclusive results are not listed. Rule for the calls: active = survival T/C of 150% or more; inactive = T/C below 125% in these data.

System: P388 leukemia ip, CD2F1 mice, survival T/C
Assay: NCI In Vivo Anticancer Drug Screen. Data for tumor model P388 Leukemia (intraperitoneal) in CD2F1 (CDF1) mice
Details: endpoint: median survival time, higher = longer survival
How it was run: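 Mice carrying the transplanted tumor received test compound or vehicle. Survival was recorded in each group, and the value is the treated-group measurement divided by that of the vehicle-treated control group.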

[1] = dose: 100.0 mg/kg/injection, schedule: Q04DX003 (ip), vehicle: Klucel (hydroxypropylcellulose) (HPC)
[2] = dose: 200.0 mg/kg/injection, schedule: Q04DX003 (ip), vehicle: Klucel (hydroxypropylcellulose) (HPC)
[3] = dose: 400.0 mg/kg/injection, schedule: Q04DX003 (ip), vehicle: Klucel (hydroxypropylcellulose) (HPC)
[4] = dose: 50.0 mg/kg/injection, schedule: Q01DX005 (ip), vehicle: Klucel (hydroxypropylcellulose) (HPC)
[5] = dose: 50.0 mg/kg/injection, schedule: Q01DX009 (ip), vehicle: saline with Tween-80
[6] = dose: 100.0 mg/kg/injection, schedule: Q01DX009 (ip), vehicle: saline with Tween-80
[7] = dose: 200.0 mg/kg/injection, schedule: Q01DX009 (ip), vehicle: saline with Tween-80
[8] = dose: 50.0 mg/kg/injection, schedule: Q01DX005 (ip), vehicle: saline with Tween-80
[9] = dose: 60.0 mg/kg/injection, schedule: Q01DX005 (ip), vehicle: saline with Tween-80
[10] = dose: 120.0 mg/kg/injection, schedule: Q01DX005 (ip), vehicle: saline with Tween-80
[11] = dose: 240.0 mg/kg/injection, schedule: Q01DX005 (ip), vehicle: saline with Tween-80
[12] = dose: 50.0 mg/kg/injection, schedule: Q01DX009 (ip), vehicle: Klucel (hydroxypropylcellulose) (HPC)
[13] = dose: 100.0 mg/kg/injection, schedule: Q01DX009 (ip), vehicle: Klucel (hydroxypropylcellulose) (HPC)
[14] = dose: 50.0 mg/kg/injection, schedule: Q01DX009 (ip), vehicle: saline
[15] = dose: 100.0 mg/kg/injection, schedule: Q01DX009 (ip), vehicle: saline
[16] = dose: 200.0 mg/kg/injection, schedule: Q01DX009 (ip), vehicle: saline

Measured: T/C

Cc1cc2nc(C(C)C(=O)c3ccc(Cl)cc3)c(=O)[nH]c2cc1C (stereo not drawn)
inactive: dose: 1.88 mg/kg/injection, schedule: Q01DX005 (ip), vehicle: saline with Tween-80 100 % of control | dose: 3.75 mg/kg/injection, schedule: Q01DX005 (ip), vehicle: saline with Tween-80 104 % of control | dose: 7.5 mg/kg/injection, schedule: Q01DX005 (ip), vehicle: saline with Tween-80 86 % of control

CNC(=O)NNc1ccccc1
inactive: dose: 25.0 mg/kg/injection, schedule: Q04DX003 (ip), vehicle: Klucel (hydroxypropylcellulose) (HPC) 100 % of control | dose: 50.0 mg/kg/injection, schedule: Q04DX003 (ip), vehicle: Klucel (hydroxypropylcellulose) (HPC) 102 % of control | [1] 97 % of control | [2] 102 % of control | [3] 103 % of control

CN(C)/C(=C(\CBr)C(=O)c1ccc(-c2ccccc2)cc1)c1ccccc1
inactive: dose: 12.5 mg/kg/injection, schedule: Q01DX005 (ip), vehicle: Klucel (hydroxypropylcellulose) (HPC) 108 % of control | dose: 25.0 mg/kg/injection, schedule: Q01DX005 (ip), vehicle: Klucel (hydroxypropylcellulose) (HPC) 105 % of control | [4] 105 % of control and 107 % of control

CCCCCCCCCCCCCOCC(=O)OC
inactive: [5] 100 % of control | [6] 104 % of control | [7] 105 % of control

CN(C)c1ccc(N=C2C=CC(=O)C=C2)cc1
inactive: dose: 1.5 mg/kg/injection, schedule: Q01DX009 (ip), vehicle: saline with Tween-80 101 % of control and 104 % of control and 106 % of control | dose: 3.0 mg/kg/injection, schedule: Q01DX009 (ip), vehicle: saline with Tween-80 105 % of control and 106 % of control (2×) | dose: 6.0 mg/kg/injection, schedule: Q01DX009 (ip), vehicle: saline with Tween-80 113 % of control (2×) and 120 % of control | dose: 12.0 mg/kg/injection, schedule: Q01DX009 (ip), vehicle: saline with Tween-80 100 % of control and 103 % of control | dose: 25.0 mg/kg/injection, schedule: Q01DX009 (ip), vehicle: saline with Tween-80 102 % of control

CC1CN1P(=O)(c1ccccc1)N1CC1C (stereo not drawn)
inactive: dose: 12.5 mg/kg/injection, schedule: Q01DX005 (ip), vehicle: saline with Tween-80 108 % of control | dose: 12.5 mg/kg/injection, schedule: Q01DX005 (ip), vehicle: saline 100 % of control | dose: 25.0 mg/kg/injection, schedule: Q01DX005 (ip), vehicle: saline with Tween-80 100 % of control | dose: 25.0 mg/kg/injection, schedule: Q01DX005 (ip), vehicle: saline 95 % of control | [8] 104 % of control and 97 % of control | dose: 50.0 mg/kg/injection, schedule: Q01DX005 (ip), vehicle: saline 96 % of control | dose: 50.0 mg/kg/injection, schedule: Q01DX005 (ip), vehicle: suspension in saline 105 % of control | dose: 100.0 mg/kg/injection, schedule: Q01DX005 (ip), vehicle: suspension in saline 115 % of control

O=C(CCC(=O)C1CCCC1=O)Nc1cccc([N+](=O)[O-])c1 (stereo not drawn)
inactive: [9] 102 % of control | [10] 102 % of control | [11] 101 % of control

CCC(C)(C)NCCCCCNc1cc(OC)cc2cccnc12
inactive: [4] 94 % of control | [8] 95 % of control | dose: 100.0 mg/kg/injection, schedule: Q01DX005 (ip), vehicle: Klucel (hydroxypropylcellulose) (HPC) 101 % of control | dose: 100.0 mg/kg/injection, schedule: Q01DX005 (ip), vehicle: saline with Tween-80 95 % of control | dose: 200.0 mg/kg/injection, schedule: Q01DX005 (ip), vehicle: saline with Tween-80 91 % of control

COC(=O)C1(CC(=O)C(c2ccccc2)c2ccccc2)NC(=S)NC(=O)C1C#N (stereo not drawn)
inactive: dose: 60.0 mg/kg/injection, schedule: Q01DX005 (ip), vehicle: saline 98 % of control | dose: 120.0 mg/kg/injection, schedule: Q01DX005 (ip), vehicle: saline 95 % of control | dose: 240.0 mg/kg/injection, schedule: Q01DX005 (ip), vehicle: saline 100 % of control

ClC1=C(Cl)C(=C2CCCC2)C(Cl)=C1Cl
inactive: [12] 100 % of control | [13] 100 % of control | dose: 200.0 mg/kg/injection, schedule: Q01DX009 (ip), vehicle: Klucel (hydroxypropylcellulose) (HPC) 87 % of control

CCCCN=Cc1ccccc1O.CCCCN=Cc1ccccc1O.[Zn]
inactive: [12] 98 % of control | [13] 112 % of control

Cc1ccc(S(=O)(=O)CS(N)(=O)=O)cc1
inactive: dose: 100.0 mg/kg/injection, schedule: Q01DX001 (ip), vehicle: saline with Tween-80 99 % of control | dose: 200.0 mg/kg/injection, schedule: Q01DX001 (ip), vehicle: saline with Tween-80 118 % of control | dose: 400.0 mg/kg/injection, schedule: Q01DX001 (ip), vehicle: saline with Tween-80 97 % of control

O=[N+]([O-])c1cccnc1Sc1ccnc(Sc2ncccc2[N+](=O)[O-])n1
inactive: [5] 89 % of control | [14] 97 % of control | [15] 100 % of control and 96 % of control | [7] 89 % of control | [16] 89 % of control and 91 % of control

CC(C)=NOCc1ccccc1
inactive: dose: 2.5 mg/kg/injection, schedule: Q01DX009 (ip), vehicle: Klucel (hydroxypropylcellulose) (HPC) 119 % of control | dose: 5.0 mg/kg/injection, schedule: Q01DX009 (ip), vehicle: Klucel (hydroxypropylcellulose) (HPC) 120 % of control | dose: 10.0 mg/kg/injection, schedule: Q01DX009 (ip), vehicle: Klucel (hydroxypropylcellulose) (HPC) 117 % of control | [12] 94 % of control | [13] 98 % of control

COc1ccc2nc3ccccc3c(SCCCCCCSc3c4ccccc4nc4ccc(OC)cc34)c2c1
inactive: dose: 15.0 mg/kg/injection, schedule: Q01DX005 (ip), vehicle: Klucel (hydroxypropylcellulose) (HPC) 101 % of control | dose: 30.0 mg/kg/injection, schedule: Q01DX005 (ip), vehicle: Klucel (hydroxypropylcellulose) (HPC) 98 % of control | dose: 60.0 mg/kg/injection, schedule: Q01DX005 (ip), vehicle: Klucel (hydroxypropylcellulose) (HPC) 100 % of control and 89 % of control and 90 % of control | dose: 240.0 mg/kg/injection, schedule: Q01DX005 (ip), vehicle: Klucel (hydroxypropylcellulose) (HPC) 89 % of control

CC12C(=O)NC(c3ccccc3)(c3ccccc31)C1C(=O)N(C(N)=O)C(=O)C12 (stereo not drawn)
inactive: [9] 94 % of control | [10] 89 % of control | [11] 93 % of control

CC1COCCOC(=O)c2cccc(n2)C(=O)OCCOCC(C)O1 (stereo not drawn)
inactive: [1] 102 % of control | [2] 95 % of control | [3] 102 % of control

CCCCCC[N+](C)([O-])CCCCCC[N+](C)([O-])CCCCCC (stereo not drawn)
inactive: [14] 107 % of control | [15] 101 % of control | [16] 97 % of control

CCCCCCCCCCCC[N+](C)(C)C (tested in a mixture with another compound)
inactive: dose: 6.25 mg/kg/injection, schedule: Q01DX009 (ip), vehicle: Klucel (hydroxypropylcellulose) (HPC) 113 % of control | dose: 12.5 mg/kg/injection, schedule: Q01DX009 (ip), vehicle: Klucel (hydroxypropylcellulose) (HPC) 114 % of control | dose: 25.0 mg/kg/injection, schedule: Q01DX009 (ip), vehicle: Klucel (hydroxypropylcellulose) (HPC) 114 % of control

COc1cc2cc3c4cc(OC)c(OC)cc4cc[n+]3c(CCC(=O)O)c2cc1OC
inactive: [6] 96 % of control | [7] 96 % of control | dose: 400.0 mg/kg/injection, schedule: Q01DX009 (ip), vehicle: saline with Tween-80 94 % of control

CCOC(=O)CSc1nnc(N)s1
inactive: [5] 121 % of control | [6] 116 % of control | [7] 98 % of control
